Laboratory results from patent publication US10143704B2, “Methods for treating cancer” (Epizyme, Inc., priority 2013, dated 2018).

Key:
MLL-r cells = assay: Pre-clinical study of EPZ-5676: methyl mark inhibition and cell killing; assay type: cell-based; details: pre-clinical study plots, FIGS. 3A-3D
[1] = test system: patients with MLL-r and MLL-PTD; assay: Phase 1 dose escalation/expansion study of EPZ-5676 in leukemia patients; assay type: in vivo, human
Method: FIG. 1 is a summary of Phase 1 dose escalation study of EPZ-5676. […] The expansion stage of a Phase 1 study is enrolling adult patients with MLL-r and MLL-PTD who are being treated with 90 mg/m^2/day with uninterrupted administration.

SMILES: CC(C)N(C[C@H]1O[C@@H](n2cnc3c(N)ncnc32)[C@H](O)[C@@H]1O)[C@H]1C[C@@H](CCc2nc3cc(C(C)(C)C)ccc3[nH]2)C1 [Compound A2, (2R,3R,4S,5R)-2-(6-amino-9H-purin-9-yl)-5-((((1r,3S)-3-(2-(5-(tert-butyl)-1H-benzo[d]imidazol-2yl)ethyl)cyclobutyl)(isopropyl)amino)methyl)tetrahydrofuran-3,4-diol]
- effect of target methyl mark inhibition on cancer cells (MLL-r cells): selective killing of genetically defined cancer cells
- safety: drug-related treatment discontinuations ([1]; adult patients with MLL-r and MLL-PTD, 90 mg/m^2/day uninterrupted administration, expansion stage of Phase 1): no drug-related treatment discontinuations
- effect on leukemic cells in patients (micrographs) ([1]; patients with MLL-r, FIGS. 8A-8F): differentiation effect
